Reference: patent EP3046573B1, “AMYLIN ANALOGUES” (Zealand Pharma A/S, priority 2013, dated 2015)
Numbered stars: 1 amine (or outer) side, 2 acyl side, 3 side chain; on linkers, the order of the positions; unused ones are H or OH. Bridge positions count the residues as written; N and C are the ends. Square brackets hold non-standard residues; d marks the D form. Peptide text beside a SMILES is read from it. * marks the point of attachment. C20 diacid = O=C(O)CCCCCCCCCCCCCCCCCCC(=O)*; γGlu = O=C(O)[C@H](CCC(=O)[*:2])N[*:1]; NMeI = CC[C@H](C)[C@H](NC)C(=O)O; Sar = CNCC(=O)O

Assay: Solubility assessment (turbidity absorbance at 325 nm)
Type: physicochemical
Conditions: stock 2 mg/ml diluted 1:1, ambient temperature (typically 25°C), n=1; for Solubility, Acetate buffer pH 4: 100 mM acetate buffer pH 4.0; for Solubility, Acetate buffer pH 5: 100 mM acetate buffer pH 5.0; for Solubility, Histidine buffer pH 6: 100 mM histidine buffer pH 6.0; for Solubility, Histidine buffer pH 7: 100 mM histidine buffer pH 7.0; for Solubility, Phosphate buffer pH 6: 100 mM phosphate buffer pH 6.0; for Solubility, Phosphate buffer pH 7: 100 mM phosphate buffer pH 7.0; for Solubility, Phosphate buffer pH 7.5: 100 mM phosphate buffer pH7.5
Method: A stock solution of the test peptide (2 mg/ml; determined from the weighed amount of peptide) in demineralized water adjusted to pH 2.5 with HCI was prepared, and aliquots were diluted 1:1 in 100 mM acetate buffer (pH 4.0 and pH 5.0), 100 mM histidine buffer (pH 6.0 and pH 7.0) and 100 mM phosphate buffer (pH 6.0, pH 7.0 and pH7.5), respectively, and loaded in a standard flat-bottom, non-sterile 96-well UV Microplate. The absorbance of samples (single samples, n=1) at 280 and 325 nm was measured in an absorbance-based plate reader, which was preheated to ambient temperature (typically 25°C). The turbidity absorbance criterion for a peptide solubility of ≥ 1 mg/ml was an absorbance at 325 nm of ≤ 0.02 absorbance units (which is 5 to 6 times the standard deviation of 8 buffer samples in a plate). Solubility data for peptides of the invention, pramlintide, and for a comparison pramlintide derivative denoted NN96 (see Example 5 below for details) are shown in Table 1, below. Table 1. Solubility data for compounds of the invention.

CC[C@H](C)[C@@H](C(=O)N[C@@H](CC(C)C)C(=O)N[C@@H](CO)C(=O)N[C@@H](CO)C(=O)N[C@H](C(=O)N[C@@H](CC(N)=O)C(=O)N[C@H](C(=O)NCC(=O)N[C@@H](CO)C(=O)N[C@@H](CC(N)=O)C(=O)N[C@H](C(=O)N1CCC[C@H]1C(N)=O)[C@@H](C)O)C(C)C)[C@@H](C)O)N(C)C(=O)[C@H](C)NC(=O)CN(C)C(=O)[C@H](Cc1ccccc1)NC(=O)[C@H](CC(N)=O)NC(=O)[C@H](CC(N)=O)NC(=O)[C@H](CO)NC(=O)[C@H](CO)NC(=O)[C@H](Cc1c[nH]cn1)NC(=O)[C@H](Cc1c[nH]cn1)NC(=O)[C@@H](CC(C)C)NC(=O)[C@H](Cc1ccccc1)NC(=O)[C@H](CCC(=O)O)NC(=O)[C@H](C)NC(=O)[C@H](CC(C)C)NC(=O)[C@H](CCCNC(=N)N)NC(=O)[C@H](CCC(N)=O)NC(=O)[C@@H](NC(=O)[C@H](C)NC(=O)[C@@H]1CSSC[C@H](NC(=O)[C@H](CCCNC(=N)N)NC(=O)CC[C@H](NC(=O)CCCCCCCCCCCCCCCCCCC(=O)O)C(=O)O)C(=O)N[C@@H](CC(N)=O)C(=O)N[C@@H]([C@@H](C)O)C(=O)N[C@@H](C)C(=O)N[C@@H]([C@@H](C)O)C(=O)N1)[C@@H](C)O [Compound 10, [19CD]-isoGlu-RC()NTATC()ATQRLAEF-DLeu-HHSSNNF-Gly(Me)-A-Ile(Me)-LSSTNVGSNTP-NH2] ({C20 diacid-γGlu}-RCNTATCATQRLAEF[dL]HHSSNNF[Sar]A[NMeI]LSSTNVGSNTP-NH2; disulfide 2-7)
SS (SS indicates solubility ≥ 1mg/ml): Solubility, Acetate buffer pH 4 | Solubility, Acetate buffer pH 5 | Solubility, Histidine buffer pH 6 | Solubility, Histidine buffer pH 7 | Solubility, Phosphate buffer pH 6 | Solubility, Phosphate buffer pH 7 | Solubility, Phosphate buffer pH 7.5

CC[C@H](C)[C@@H](C(=O)N[C@@H](CC(C)C)C(=O)N[C@@H](CO)C(=O)N[C@@H](CO)C(=O)N[C@H](C(=O)N[C@@H](CC(N)=O)C(=O)N[C@H](C(=O)NCC(=O)N[C@@H](CO)C(=O)N[C@@H](CC(N)=O)C(=O)N[C@H](C(=O)N1CCC[C@H]1C(N)=O)[C@@H](C)O)C(C)C)[C@@H](C)O)N(C)C(=O)[C@H](C)NC(=O)CN(C)C(=O)[C@H](Cc1ccccc1)NC(=O)[C@H](CC(N)=O)NC(=O)[C@@H](CC(N)=O)NC(=O)[C@H](CO)NC(=O)[C@H](CO)NC(=O)[C@H](Cc1c[nH]cn1)NC(=O)[C@H](Cc1c[nH]cn1)NC(=O)[C@H](CC(C)C)NC(=O)[C@H](Cc1ccccc1)NC(=O)[C@H](CCC(=O)O)NC(=O)[C@H](C)NC(=O)[C@H](CC(C)C)NC(=O)[C@H](CCCNC(=N)N)NC(=O)[C@H](CCC(N)=O)NC(=O)[C@@H](NC(=O)[C@H](C)NC(=O)[C@@H]1CSSC[C@H](NC(=O)[C@H](CCCNC(=N)N)NC(=O)CC[C@H](NC(=O)CCCCCCCCCCCCCCCCCCC(=O)O)C(=O)O)C(=O)N[C@@H](CC(N)=O)C(=O)N[C@@H]([C@@H](C)O)C(=O)N[C@@H](C)C(=O)N[C@@H]([C@@H](C)O)C(=O)N1)[C@@H](C)O [Compound 32, [19CD]-isoGlu-RC()NTATC()ATQRLAEFLHHSS-DAsn-NF-Gly(Me)-A-Ile(Me)-LSSTNVGSNTP-NH2] ({C20 diacid-γGlu}-RCNTATCATQRLAEFLHHSS[dN]NF[Sar]A[NMeI]LSSTNVGSNTP-NH2; disulfide 2-7)
SS (SS indicates solubility ≥ 1mg/ml): Solubility, Acetate buffer pH 4 | Solubility, Acetate buffer pH 5 | Solubility, Histidine buffer pH 6 | Solubility, Histidine buffer pH 7 | Solubility, Phosphate buffer pH 6 | Solubility, Phosphate buffer pH 7 | Solubility, Phosphate buffer pH 7.5

CC[C@H](C)[C@@H](C(=O)N[C@@H](CC(C)C)C(=O)N[C@@H](CO)C(=O)N[C@@H](CO)C(=O)N[C@H](C(=O)N[C@@H](CC(N)=O)C(=O)N[C@H](C(=O)NCC(=O)N[C@@H](CO)C(=O)N[C@@H](CC(N)=O)C(=O)N[C@H](C(=O)N1CCC[C@H]1C(N)=O)[C@@H](C)O)C(C)C)[C@@H](C)O)N(C)C(=O)[C@H](C)NC(=O)CN(C)C(=O)[C@H](Cc1ccccc1)NC(=O)[C@@H](CC(N)=O)NC(=O)[C@H](CC(N)=O)NC(=O)[C@H](CO)NC(=O)[C@H](CO)NC(=O)[C@H](Cc1c[nH]cn1)NC(=O)[C@H](Cc1c[nH]cn1)NC(=O)[C@H](CC(C)C)NC(=O)[C@H](Cc1ccccc1)NC(=O)[C@H](CCC(=O)O)NC(=O)[C@H](C)NC(=O)[C@H](CC(C)C)NC(=O)[C@H](CCCNC(=N)N)NC(=O)[C@H](CCC(N)=O)NC(=O)[C@@H](NC(=O)[C@H](C)NC(=O)[C@@H]1CSSC[C@H](NC(=O)[C@H](CCCNC(=N)N)NC(=O)CC[C@H](NC(=O)CCCCCCCCCCCCCCCCCCC(=O)O)C(=O)O)C(=O)N[C@@H](CC(N)=O)C(=O)N[C@@H]([C@@H](C)O)C(=O)N[C@@H](C)C(=O)N[C@@H]([C@@H](C)O)C(=O)N1)[C@@H](C)O [Compound 33, [19CD]-isoGlu-RC()NTATC()ATQRLAEFLHHSSN-DAsn-F-Gly(Me)-A-Ile(Me)-LSSTNVGSNTP-NH2] ({C20 diacid-γGlu}-RCNTATCATQRLAEFLHHSSN[dN]F[Sar]A[NMeI]LSSTNVGSNTP-NH2; disulfide 2-7)
SS (SS indicates solubility ≥ 1mg/ml): Solubility, Acetate buffer pH 4 | Solubility, Acetate buffer pH 5 | Solubility, Histidine buffer pH 6 | Solubility, Histidine buffer pH 7 | Solubility, Phosphate buffer pH 6 | Solubility, Phosphate buffer pH 7 | Solubility, Phosphate buffer pH 7.5

CC[C@H](C)[C@@H](C(=O)N[C@@H](CC(C)C)C(=O)N[C@@H](CO)C(=O)N[C@@H](CO)C(=O)N[C@H](C(=O)N[C@@H](CC(N)=O)C(=O)N[C@H](C(=O)NCC(=O)N[C@@H](CO)C(=O)N[C@@H](CC(N)=O)C(=O)N[C@H](C(=O)N1CCC[C@H]1C(N)=O)[C@@H](C)O)C(C)C)[C@@H](C)O)N(C)C(=O)[C@H](C)NC(=O)CN(C)C(=O)[C@H](Cc1ccccc1)NC(=O)[C@H](CC(N)=O)NC(=O)[C@H](CC(N)=O)NC(=O)[C@H](CO)NC(=O)[C@H](CO)NC(=O)[C@H](CCCNC(=N)N)NC(=O)[C@H](Cc1c[nH]cn1)NC(=O)[C@H](CC(C)C)NC(=O)[C@H](Cc1ccccc1)NC(=O)[C@H](CCC(=O)O)NC(=O)[C@H](C)NC(=O)[C@H](CC(C)C)NC(=O)[C@H](CCCNC(=N)N)NC(=O)[C@H](CCC(N)=O)NC(=O)[C@@H](NC(=O)[C@H](C)NC(=O)[C@@H]1CSSC[C@H](NC(=O)[C@H](CCCCN)NC(=O)CC[C@H](NC(=O)CCCCCCCCCCCCCCCCCCC(=O)O)C(=O)O)C(=O)N[C@@H](CC(N)=O)C(=O)N[C@@H]([C@@H](C)O)C(=O)N[C@@H](C)C(=O)N[C@@H]([C@@H](C)O)C(=O)N1)[C@@H](C)O [Compound 57, [19CD]-isoGlu-KC()NTATC()ATQRLAEFLHRSSNNF-Gly(Me)-A-Ile(Me)-LSSTNVGSNTP-NH2] ({C20 diacid-γGlu}-KCNTATCATQRLAEFLHRSSNNF[Sar]A[NMeI]LSSTNVGSNTP-NH2; disulfide 2-7)
SS (SS indicates solubility ≥ 1mg/ml): Solubility, Acetate buffer pH 4 | Solubility, Acetate buffer pH 5 | Solubility, Histidine buffer pH 6 | Solubility, Histidine buffer pH 7 | Solubility, Phosphate buffer pH 6 | Solubility, Phosphate buffer pH 7 | Solubility, Phosphate buffer pH 7.5
